The record followed here is patent publication US6107017A, “Photographic elements containing high-boiling diester solvents” (Eastman Kodak Company, priority 1998, dated 2000).

What all share (assay type): physicochemical
A short description of data set [1]: Water solubility from light scattering (at 500 nm) of dispersions of the high-boiling solvent in water. The method, then:
(§1) Water solubilities were obtained from plots of light scattering (at 500 nm) of dispersions of the high-boiling solvent in water versus concentration. The light scattering density goes to zero at the solubility limit, when dispersions of high-boiling solvent are diluted. […] Viscosities reported in Table I were measured using a Brookfield cone/plate viscometer. Solvents of high polarity and/or polarizability are often needed to provide suitably bathochromic hues for the types of dyes commonly encountered in color photographic materials. Dye C1, whose structure is provided after Table I, is representative of such dyes. The visible absorption maxima (Lambda max) values for C1, measured with a Perkin Elmer Lambda 2S spectrophotometer, are provided in Table I as measures of solvent polarity/polarizability.

Data set [2] can be described thus: Viscosity measured using a Brookfield cone/plate viscometer. The method, then: Water solubilities were obtained from plots of light scattering (at 500 nm) of dispersions of the high-boiling solvent in water versus concentration. The light scattering density goes to zero at the solubility limit, when dispersions of high-boiling solvent are diluted. Values of log P calculated using MEDCHEM version 3.54 are also given in Table I and serve as rough indicators of water solubility. Viscosities reported in Table I were measured using a Brookfield cone/plate viscometer. Solvents of high polarity and/or polarizability are often needed to provide suitably bathochromic hues for the types of dyes commonly encountered in color photographic materials. Dye C1, whose structure is provided after Table I, is representative of such dyes. The visible absorption maxima (Lambda max) values for C1, measured with a Perkin Elmer Lambda 2S spectrophotometer, are provided in Table I as measures of solvent polarity/polarizability.

A short description of data set [3]: Visible absorption maximum (Lambda max) of Dye C1 in the high-boiling solvent, as measure of solvent polarity/polarizability. Particulars: Perkin Elmer Lambda 2S spectrophotometer. The protocol: as §1
Data set [4] is described as follows: Lambda max of the yellow dye produced from Coupler Y-1 on development. Particulars: yellow dye from Y-1, at a blue density of about 1.0. The method, then:
For this example, Coupler Y-1 (structure below) was dispersed and coated with comparative high-boiling solvent B1 and with high-boiling solvent A2 of this invention. The dispersions were prepared by adding an oil phase containing a 1:1:3 weight ratio of Y-1:high-boiling solvent: ethyl acetate to an aqueous phase containing gelatin and the dispersing agent ALKANOL XC (mixed isomers of triisopropyl-2-naphthalene sulfonic acid, sodium salt, DuPont) in a 10:1 weight ratio. The mixture was then passed through a colloid mill to disperse the oil in the aqueous phase as small particles. On coating, the ethyl acetate auxiliary solvent evaporates. […]
After hardening, samples of each of the films in Table II were given a sensitometric white light exposure and processed using the KODAK FLEXICOLOR C-41 procedure described in Table III. Measurements of status M blue density versus exposure were made for each processed film strip, and photographic contrast (gamma) was determined from the slopes of such plots. […] The gamma value of 2.45 obtained with solvent A2 of this invention in coating B is similar to the gamma value of 2.63 obtained from comparative solvent B1 in coating A. Spectra of the yellow dye produced from Y-1 on development were measured at a blue density of about 1.0 using a Perkin Elmer Lambda 2S spectrophotometer. […]

SMILES strings stand for the structures.

Take `Cc1ccc(C(=O)OCCC(C)OC(=O)c2ccc(C)cc2)cc1` (centres unmarked) [A1]: the “Water Solubility” value in data set [1] was 1.2 µg/mL. The Viscosity in data set [2] is given as 265 centipoise. For the same molecule, in data set [3], the “Lambda max of Dye C1” value is 672 nm.
For the molecule `CCCCC(COC(=O)c1ccccc1)OC(=O)c1ccccc1` (centres unmarked) [A2], the “Water Solubility” value in data set [1] is 1.1 µg/mL. In addition, in data set [2], the Viscosity stood at 157 centipoise. The molecule also came in with a Lambda max in data set [4] of 449 nm. For the same molecule, in data set [3], the “Lambda max of Dye C1” value is reported as 672 nm.
For `Cc1cccc(C(=O)OCCC(C)OC(=O)c2cccc(C)c2)c1` (centres unmarked) [A3], the “Water Solubility” value in data set [1] is 1.9 µg/mL. In data set [2], this molecule returned a Viscosity of 295 centipoise. Besides, the “Lambda max of Dye C1” value in data set [3] came out at 672 nm.
On to `O=C(OCCCCCOC(=O)c1ccccc1)c1ccccc1` [A4], for which the “Water Solubility” value in data set [1] turned out to be 2.4 µg/mL. This molecule had a Viscosity in data set [2] of 70 centipoise. Further, in data set [3], the “Lambda max of Dye C1” value amounted to 674 nm.
As to `CCCC(COC(=O)c1ccccc1)OC(=O)c1ccccc1` (centres unmarked) [A5], in data set [1], the “Water Solubility” value came out at 1.5 µg/mL. Further, in data set [2], the Viscosity worked out at 122 centipoise. In addition, in data set [3], the “Lambda max of Dye C1” value worked out at 673 nm.
Regarding `CCCCOC(=O)c1ccccc1C(=O)OCCCC` [B1, dibutyl phthalate, reference compound], the Lambda max in data set [4] is 449 nm.
In data set [2], `CCCCC(CC)COC(=O)c1ccccc1` (centres unmarked) [B3, reference compound] registered a Viscosity of 6 centipoise. The “Lambda max of Dye C1” value in data set [3] is reported as 661 nm.
Take `O=C(OCCc1ccccc1)c1ccccc1` [B4, reference compound]: the “Water Solubility” value in data set [1] is 10 µg/mL.
